PubChem BioAssay AID330 (DTP/NCI, 2004)
Several values for one entry are separate records, joined by “and”; a condition that tells them apart may be missing. Identical values can stand only once. Toxic doses and inconclusive results are not listed. How the source made its calls: active means survival T/C of 150% or more; inactive means T/C below 125% in these data.

Tested on: P388 leukemia ip, CD2F1 mice, survival T/C
Test: NCI In Vivo Anticancer Drug Screen. Data for tumor model P388 Leukemia (intraperitoneal) in CD2F1 (CDF1) mice
Details: endpoint: median survival time, higher = longer survival
Procedure, shortened: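 Mice carrying the transplanted tumor received test compound or vehicle. Survival was recorded in each group, and the value is the treated-group measurement divided by that of the vehicle-treated control group.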

[1] = dose: 50.0 mg/kg/injection, schedule: Q01DX005 (ip), vehicle: Klucel (hydroxypropylcellulose) (HPC)
[2] = dose: 100.0 mg/kg/injection, schedule: Q01DX005 (ip), vehicle: Klucel (hydroxypropylcellulose) (HPC)
[3] = dose: 200.0 mg/kg/injection, schedule: Q01DX005 (ip), vehicle: Klucel (hydroxypropylcellulose) (HPC)
[4] = dose: 50.0 mg/kg/injection, schedule: Q01DX009 (ip), vehicle: saline with Tween-80
[5] = dose: 100.0 mg/kg/injection, schedule: Q01DX009 (ip), vehicle: saline with Tween-80
[6] = dose: 200.0 mg/kg/injection, schedule: Q01DX009 (ip), vehicle: saline with Tween-80
[7] = dose: 25.0 mg/kg/injection, schedule: Q01DX005 (ip), vehicle: Klucel (hydroxypropylcellulose) (HPC)
[8] = dose: 0.39 mg/kg/injection, schedule: Q01DX009 (ip), vehicle: saline
[9] = dose: 0.78 mg/kg/injection, schedule: Q01DX009 (ip), vehicle: saline
[10] = dose: 1.56 mg/kg/injection, schedule: Q01DX009 (ip), vehicle: saline
[11] = dose: 6.25 mg/kg/injection, schedule: Q01DX009 (ip), vehicle: saline
[12] = dose: 100.0 mg/kg/injection, schedule: Q01DX009 (ip), vehicle: Klucel (hydroxypropylcellulose) (HPC)
[13] = dose: 200.0 mg/kg/injection, schedule: Q01DX009 (ip), vehicle: Klucel (hydroxypropylcellulose) (HPC)

Measured: T/C

CCCCCCCCCCCCCCCCS(=O)CC(O)COC(=O)c1ccc(C(=O)OCC(O)CS(=O)CCCCCCCCCCCCCCCC)cc1 (stereo not given)
inactive: dose: 25.0 mg/kg/injection, schedule: Q01DX009 (ip), vehicle: other 104 % of control | dose: 50.0 mg/kg/injection, schedule: Q01DX009 (ip), vehicle: other 114 % of control | dose: 100.0 mg/kg/injection, schedule: Q01DX009 (ip), vehicle: other 122 % of control

COC(=O)C1c2c(C)cc3n2C(C=C(C)C3)C1C(=O)OC (stereo not given)
inactive: dose: 100.0 mg/kg/injection, schedule: Q04DX003 (ip), vehicle: Klucel (hydroxypropylcellulose) (HPC) 100 % of control | dose: 200.0 mg/kg/injection, schedule: Q04DX003 (ip), vehicle: Klucel (hydroxypropylcellulose) (HPC) 105 % of control | dose: 400.0 mg/kg/injection, schedule: Q04DX003 (ip), vehicle: Klucel (hydroxypropylcellulose) (HPC) 95 % of control

CC(COC(=O)c1cccc([N+](=O)[O-])c1C(=O)O)c1ccccc1 (stereo not given)
inactive: dose: 100.0 mg/kg/injection, schedule: Q04DX002 (ip), vehicle: saline with Tween-80 98 % of control | dose: 200.0 mg/kg/injection, schedule: Q04DX002 (ip), vehicle: saline with Tween-80 109 % of control | dose: 400.0 mg/kg/injection, schedule: Q04DX002 (ip), vehicle: saline with Tween-80 110 % of control

C=CC(C)NC(=S)NNC(=S)NC (stereo not given)
inactive: [1] 101 % of control | [2] 100 % of control | [3] 101 % of control

O=[N+]([O-])c1ccc(N2CC2)c2c1no[n+]2[O-]
inactive: dose: 7.5 mg/kg/injection, schedule: Q04DX003 (ip), vehicle: saline with Tween-80 101 % of control | dose: 15.0 mg/kg/injection, schedule: Q04DX003 (ip), vehicle: saline with Tween-80 99 % of control | dose: 30.0 mg/kg/injection, schedule: Q04DX003 (ip), vehicle: saline with Tween-80 100 % of control | dose: 60.0 mg/kg/injection, schedule: Q04DX003 (ip), vehicle: saline with Tween-80 100 % of control

CC(C)(C)NCC(O)CCl (stereo not given)
inactive: dose: 25.0 mg/kg/injection, schedule: Q01DX009 (ip), vehicle: water 113 % of control | dose: 50.0 mg/kg/injection, schedule: Q01DX009 (ip), vehicle: water 99 % of control | dose: 100.0 mg/kg/injection, schedule: Q01DX009 (ip), vehicle: water 99 % of control | dose: 200.0 mg/kg/injection, schedule: Q01DX009 (ip), vehicle: water 103 % of control

Cc1cc(-c2ccccc2)n(C(C(=O)c2ccccc2)c2ccccc2)n1 (stereo not given)
inactive: [4] 101 % of control | [5] 106 % of control | [6] 100 % of control

O=c1ccccc(Br)c1O
inactive: [7] 100 % of control | [1] 106 % of control | [2] 106 % of control

CCOC(C)OCCCI (stereo not given)
inactive: dose: 60.0 mg/kg/injection, schedule: Q01DX005 (ip), vehicle: saline with Tween-80 105 % of control | dose: 120.0 mg/kg/injection, schedule: Q01DX005 (ip), vehicle: saline with Tween-80 101 % of control | dose: 240.0 mg/kg/injection, schedule: Q01DX005 (ip), vehicle: saline with Tween-80 105 % of control

COc1ccc(CC(N)C(=O)OCc2ccccc2)cc1N(CCCl)CCCl (stereo not given)
inactive: dose: 1.56 mg/kg/injection, schedule: Q01DX009 (ip), vehicle: suspension in saline 97 % of control | dose: 3.12 mg/kg/injection, schedule: Q01DX009 (ip), vehicle: suspension in saline 95 % of control | dose: 6.25 mg/kg/injection, schedule: Q01DX009 (ip), vehicle: suspension in saline 100 % of control

CNC(=O)Nc1nccs1
inactive: [4] 105 % of control | [5] 96 % of control | [6] 97 % of control

O=C(OC12CCCCC1C1(CCCCC1)N=N2)c1ccccc1 (stereo not given)
inactive: dose: 12.5 mg/kg/injection, schedule: Q01DX009 (ip), vehicle: saline with Tween-80 105 % of control | dose: 25.0 mg/kg/injection, schedule: Q01DX009 (ip), vehicle: saline with Tween-80 99 % of control | [4] 111 % of control | [5] 99 % of control | [6] 97 % of control

COc1cc2c(c(OC)c1OC)-c1cc3c(cc1CC1COC(=O)N1C2)OCO3 (stereo not given)
inactive: dose: 15.0 mg/kg/injection, schedule: Q01DX005 (ip), vehicle: Klucel (hydroxypropylcellulose) (HPC) 90 % of control and 94 % of control | dose: 30.0 mg/kg/injection, schedule: Q01DX005 (ip), vehicle: Klucel (hydroxypropylcellulose) (HPC) 100 % of control and 105 % of control | dose: 60.0 mg/kg/injection, schedule: Q01DX005 (ip), vehicle: Klucel (hydroxypropylcellulose) (HPC) 103 % of control and 116 % of control and 96 % of control

COc1ccccc1NC(=S)Nc1ccccc1OC
inactive: [5] 100 % of control | dose: 100.0 mg/kg/injection, schedule: Q04DX003 (ip), vehicle: saline sonified 100 % of control | [6] 87 % of control | dose: 200.0 mg/kg/injection, schedule: Q04DX003 (ip), vehicle: saline sonified 100 % of control | dose: 400.0 mg/kg/injection, schedule: Q01DX009 (ip), vehicle: saline with Tween-80 91 % of control | dose: 400.0 mg/kg/injection, schedule: Q04DX003 (ip), vehicle: saline sonified 100 % of control

CC(C)C[CH2][Ge]([CH2]CC(C)C)([CH2]CC(C)C)[CH2]CC(C)C
inactive: dose: 100.0 mg/kg/injection, schedule: Q01DX001 (ip), vehicle: saline with Tween-80 100 % of control | dose: 200.0 mg/kg/injection, schedule: Q01DX001 (ip), vehicle: saline with Tween-80 94 % of control | dose: 400.0 mg/kg/injection, schedule: Q01DX001 (ip), vehicle: saline with Tween-80 96 % of control

O=C1C(=O)C2c3ccccc3C1c1ccccc12
inactive: dose: 50.0 mg/kg/injection, schedule: Q04DX002 (ip), vehicle: suspension in saline 101 % of control | dose: 100.0 mg/kg/injection, schedule: Q04DX002 (ip), vehicle: suspension in saline 106 % of control | dose: 200.0 mg/kg/injection, schedule: Q04DX002 (ip), vehicle: suspension in saline 112 % of control

C[n+]1ccc(-c2cc[n+](C)cc2)cc1
inactive: [8] 98 % of control | [9] 109 % of control | [10] 103 % of control and 109 % of control | dose: 3.12 mg/kg/injection, schedule: Q01DX009 (ip), vehicle: saline 100 % of control and 89 % of control | [11] 87 % of control

CCOC(=O)NC(=S)Nc1cccs1
inactive: [4] 91 % of control | [5] 100 % of control | [6] 101 % of control

COc1cc(/C=N/NC(=O)C(=O)N/N=C/c2cc(OC)c(OC)c(OC)c2)cc(OC)c1OC
inactive: dose: 50.0 mg/kg/injection, schedule: Q01DX009 (ip), vehicle: Klucel (hydroxypropylcellulose) (HPC) 89 % of control | [12] 95 % of control | [13] 93 % of control

[N-]=[N+]=Nc1nn2cnnc2c2[nH]c3ccccc3c12
inactive: dose: 12.5 mg/kg/injection, schedule: Q01DX005 (ip), vehicle: Klucel (hydroxypropylcellulose) (HPC) 104 % of control | [7] 108 % of control | [1] 100 % of control and 101 % of control | [2] 96 % of control | [3] 99 % of control

CC(C)(C)N=C(CCN1CCN(c2ccccc2)CC1)Nc1c(Cl)cccc1Cl
inactive: dose: 12.5 mg/kg/injection, schedule: Q01DX009 (ip), vehicle: saline 91 % of control | dose: 25.0 mg/kg/injection, schedule: Q01DX009 (ip), vehicle: saline 97 % of control | [4] 94 % of control | dose: 50.0 mg/kg/injection, schedule: Q01DX009 (ip), vehicle: saline 100 % of control | [5] 96 % of control

CCCCCCCCCCCC[N+]1(CC)CCCCC1
inactive: [8] 108 % of control | [9] 109 % of control | [10] 118 % of control

COC1=C(OC)C(=O)C=CC1=O
inactive: [9] 101 % of control | [10] 94 % of control | dose: 3.13 mg/kg/injection, schedule: Q01DX009 (ip), vehicle: saline 96 % of control | [11] 102 % of control

Nc1ccccc1.O=C([CH-]C(=O)C(F)(F)F)c1ccccc1.O=C([CH-]C(=O)C(F)(F)F)c1ccccc1.O=C([CH-]C(=O)C(F)(F)F)c1ccccc1.O=C([CH-]C(=O)C(F)(F)F)c1ccccc1.[Eu+3]
inactive: [12] 100 % of control | [13] 103 % of control

N#Cc1ccc(NN=NCCOCCCl)cc1
inactive: dose: 6.25 mg/kg/injection, schedule: Q01DX009 (ip), vehicle: distilled water + Tween-80 97 % of control | dose: 12.5 mg/kg/injection, schedule: Q01DX009 (ip), vehicle: distilled water + Tween-80 107 % of control | dose: 25.0 mg/kg/injection, schedule: Q01DX009 (ip), vehicle: distilled water + Tween-80 104 % of control | dose: 50.0 mg/kg/injection, schedule: Q01DX009 (ip), vehicle: distilled water + Tween-80 103 % of control | dose: 100.0 mg/kg/injection, schedule: Q01DX009 (ip), vehicle: distilled water + Tween-80 104 % of control
